Results on one molecule are retold here after ChEMBL document CHEMBL1153761, “Bisnicalaterine A, a vobasine-vobasine bisindole alkaloid from Hunteria zeylanica” (J Nat Prod, 2009).

The structures appear in SMILES notation. ≈ marks a conversion by molar mass, not a printed value.

Holding throughout (format): functional, cell-based
The subject of one assay is NCI-H226. The assay can be described thus: Cytotoxicity against human NCI-H226 cells after 48 hrs by MTT assay. Conditions: NCI-H226, 48 h.
The subject of the next assay is MCF7. The assay can be described thus: Cytotoxicity against human MCF7 cells after 48 hrs by MTT assay. Particulars: MCF7, 48 h.
The subject of a further assay is HCT-116. Kind of assay: Cytotoxicity against human HCT116 cells after 48 hrs by MTT assay. Particulars: HCT-116, 48 h.
For a further assay, the system named is RPMI-8226. Kind of assay: Cytotoxicity against human RPMI8226 cells after 48 hrs by MTT assay. Conditions: RPMI-8226, 48 h.
The test system of a further assay is HL-60. The assay can be described thus: Cytotoxicity against human HL60 cells after 48 hrs by MTT assay. Conditions: HL-60, 48 h.

Turning to `C/C=C1/CN(C)[C@H]2Cc3c([nH]c4ccccc34)[C@H](n3c4c(c5ccccc53)C[C@H]3[C@@H](C(=O)OC)[C@H](C[C@H]4O)/C(=C\C)CN3C)C[C@H]1[C@@H]2C(=O)OC` [BISNICALATERINE A], the IC50 with NCI-H226 stood at 28.1 µg/mL (≈ 40.7 µM); in the assay with MCF7, 38 µg/mL (≈ 55 µM); with HCT-116, 21.9 µg/mL (≈ 31.7 µM); in the assay on RPMI-8226, 31.3 µg/mL (≈ 45.3 µM); in the assay on HL-60, 16.2 µg/mL (≈ 23.4 µM).
